For the test, the target named is T1, human chemokine receptor 2 isoform B (Homo sapiens, UniProt P41597).
T1 construct: host or cells: CHOK1-CCR2B-A5 (CHO-K1)
T1 sequence (P41597 1-360 isoform P41597-2): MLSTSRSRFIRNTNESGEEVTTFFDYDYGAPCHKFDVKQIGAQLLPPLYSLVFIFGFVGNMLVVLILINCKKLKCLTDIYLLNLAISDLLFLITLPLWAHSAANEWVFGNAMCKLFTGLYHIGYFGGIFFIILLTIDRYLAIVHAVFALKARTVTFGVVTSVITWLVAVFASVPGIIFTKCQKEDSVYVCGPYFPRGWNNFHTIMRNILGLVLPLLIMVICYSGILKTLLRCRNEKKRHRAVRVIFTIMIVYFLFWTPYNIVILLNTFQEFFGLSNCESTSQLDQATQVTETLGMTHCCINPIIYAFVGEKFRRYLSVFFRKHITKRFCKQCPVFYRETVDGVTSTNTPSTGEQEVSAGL
Put plainly: Calcium mobilization assay (FLIPR, CHOK1-CCR2B-A5 cells, 20 nM MCP-1). In kind it is cell-based. The note with it: Ca mobilisation assay, CCR2, antagonist activity vs 20 nM MCP-1. In a few lines: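 Antagonism read as IC50 against 20 nM MCP-1-evoked calcium rise (peak minus baseline Fluo-4 signal, FLIPR) in CCR2B-overexpressing CHO-K1 cells. Compounds were preincubated 20-30 min at 30 °C, with agonist activity recorded for 80 s on addition.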
For orientation: A change in cytosolic calcium serves as a functional read-out for many receptors and channels.
As for `O=C(/C=C/c1ccc(Cl)c(Cl)c1)N1CCC(=O)N(CCCCN2CCN(C3CCCC3)CC2)CC1` [Example 438], the IC50 (usually the point on the concentration scale where inhibition reaches its midpoint) stood at 369 nM.

Turning to `O=C(/C=C/c1ccc(Cl)c(Cl)c1)N1CCC(=O)N(CCCCN2CC[C@@H](O)[C@@H](F)C2)CC1` (racemic) [Example 430, (rac,cis)-1-[(E)-3-(3,4-Dichloro-phenyl)-acryloyl]-4-[4-(3-fluoro-4-hydroxy-piperidin-1-yl)-butyl]-[1,4]diazepan-5-one], the half-inhibitory concentration (IC50) turned out to be 352 nM.

In the case of `COCC1C(O)CCCN1CCCCN1CCN(C(=O)/C=C/c2ccc(Cl)c(Cl)c2)CCC1=O` (racemic) [Example 486], the IC50 was 205 nM.

For `O=C(/C=C/c1ccc(Cl)c(Cl)c1)N1CCC(=O)N(CCCCN2CCC(O)C(CO)C2)CC1` (racemic) [Example 450, (rac)-1-[(E)-3-(3,4-Dichloro-phenyl)-acryloyl]-4-[4-(4-hydroxy-3-hydroxymethyl-piperidin-1-yl)-butyl]-[1,4]diazepan-5-one], the IC50 was 243 nM.

As for `O=C(/C=C/c1ccc(Cl)c(Cl)c1)N1CCC(=O)N(CCCCN2CC[C@@H](CO)[C@H](O)C2)CC1` (racemic) [Example 471], the IC50 worked out at 43 nM.

Take `O=C(/C=C/c1ccc(Cl)c(Cl)c1)N1CCC(=O)N(CCCN2CCCC(CO)C2)CC1` (racemic) [Example 228]: the IC50 amounted to 149 nM.

As to `CC1CCCN(CC(O)CCN2CCN(C(=O)/C=C/c3ccc(Cl)c(Cl)c3)CCC2=O)C1` (racemic) [Example 376], the IC50 was found to be 416 nM.

Consider `C[C@@H]1CCN(CCCCN2CCN(C(=O)/C=C/c3ccc(Cl)c(Cl)c3)CCC2=O)C[C@H]1O` (racemic) [Example 454, (rac)-1-[(E)-3-(3,4-Dichloro-phenyl)-acryloyl]-4-[4-(trans-3-hydroxy-4-methyl-piperidin-1-yl)-butyl]-[1,4]diazepan-5-one], for which the IC50 is 230 nM.

Turning to `CC1CN(CC(O)CCN2CCN(C(=O)/C=C/c3ccc(Cl)c(Cl)c3)CCC2=O)CCC1O` (racemic) [Example 358], the 50% inhibitory concentration (IC50) came to 873 nM.

Regarding `Cc1nc(C2CCN(CCCN3CCN(C(=O)/C=C/c4ccc(Cl)c(Cl)c4)CCC3=O)CC2)n[nH]1` [Example 58, 1-[(E)-3-(3,4-Dichloro-phenyl)-acryloyl]-4-{3-[4-(5-methyl-1H-[1,2,4]triazol-3-yl)-piperidin-1-yl]-propyl}-[1,4]diazepan-5-one], the 50% inhibitory concentration (IC50) came out at 546 nM.

Regarding `O=C(/C=C/c1ccc(Cl)c(Cl)c1)N1CCC(=O)N(CCCN2CCC[C@@H](O)C2)CC1` [Example 91, (R)-1-[(E)-3-(3,4-Dichloro-phenyl)-acryloyl]-4-[3-(3-hydroxy-piperidin-1-yl)-propyl]-[1,4]diazepan-5-one], the IC50 was 148 nM.

`CC1(CO)CCCCN1CC(O)CCN1CCN(C(=O)/C=C/c2ccc(Cl)c(Cl)c2)CCC1=O` (racemic) [Example 363]: the IC50 turned out to be 73 nM.

For the compound `O=C(/C=C/c1ccc(Cl)c(Cl)c1)N1CCC(=O)N(CCCN2CCC(F)(F)CC2)CC1` [Example 55, 1-[(E)-3-(3,4-Dichloro-phenyl)-acryloyl]-4-[3-(4,4-difluoro-piperidin-1-yl)-propyl]-[1,4]diazepan-5-one], the IC50 is 98 nM.

Consider `CC(C)N1CCC(NCCN2CCN(C(=O)/C=C/c3ccc(Cl)c(Cl)c3)CCC2=O)CC1` [Example 136, 1-[(E)-3-(3,4-Dichloro-phenyl)-acryloyl]-4-[2-(1-isopropyl-piperidin-4-ylamino)-ethyl]-[1,4]diazepan-5-one], for which the IC50 was found to be 688 nM.

Turning to `O=C(C=Cc1ccc(Cl)c(Cl)c1)N1CCC(=O)N(CCNC2CC3CCC2C3)CC1` (racemic) [Example 110, (+/−)-4-[3-(Bicyclo[2.2.1]hept-2-ylamino)ethyl]-1-[(E)-3-(3,4-dichloro-phenyl)-acryloyl]-[1,4]diazepan-5-one], the concentration for half-maximal inhibition (IC50) was determined as 641 nM.

With `CC1(C)CCN(C[C@H](O)CN2CCN(C(=O)/C=C/c3ccc(F)c(Cl)c3)CCC2=O)CC1O` (stereo partly drawn) [Example 343, 1-[(E)-3-(3-Chloro-4-fluoro-phenyl)-acryloyl]-4-[(S)-2-hydroxy-3-(3-hydroxy-4,4-dimethyl-piperidin-1-yl)-propyl]-[1,4]diazepan-5-one], the IC50 turned out to be 11 nM.

As to `CC(C)N1CCN(CCCN2CCN(C(=O)/C=C/c3ccc(Cl)c(Cl)c3)CCC2=O)CC1` [Example 240], the IC50 is 105 nM.

As to `O=C(/C=C/c1ccc(Cl)c(Cl)c1)N1CCC(=O)N(CCCNC2CCOCC2)CC1` [Example 63, 1-[(E)-3-(3,4-Dichloro-phenyl)-acryloyl]-4-[3-(tetrahydro-pyran-4-ylamino)-propyl]-[1,4]diazepan-5-one], the IC50 amounted to 503 nM.

On to `O=C(/C=C/c1ccc(Cl)c(Cl)c1)N1CCC(=O)N(CCCN2CCCC2)CC1` [Example 46, 1-[(E)-3-(3,4-Dichloro-phenyl)-acryloyl]-4-(3-pyrrolidin-1-yl-propyl)-[1,4]diazepan-5-one], for which the IC50 was found to be 333 nM.

In the case of `CN(CCCCN1CCN(C(=O)/C=C/c2ccc(Cl)c(Cl)c2)CCC1=O)C1CCOCC1` [Example 10, 1-[(E)-3-(3,4-Dichloro-phenyl)-acryloyl]-4-{4-[methyl-(tetrahydro-pyran-4-yl)-amino]-butyl}-[1,4]diazepan-5-one], the concentration for half-maximal inhibition (IC50) stood at 73 nM.

On to `O=C(/C=C/c1ccc(Cl)c(Cl)c1)N1CCC(=O)N(C[C@@H](O)CN2CCC3(CC3)C(O)C2)CC1` (stereo partly drawn) [Example 332, 1-[(E)-3-(3,4-Dichloro-phenyl)-acryloyl]-4-[(S)-2-hydroxy-3-((+)-4-hydroxy-6-aza-spiro[2.5]oct-6-yl)-propyl]-[1,4]diazepan-5-one], for which the half-inhibitory concentration (IC50) turned out to be 2 nM.

For the compound `O=C(/C=C/c1cccc(Cl)c1)N1CCC(=O)N(CCN2CCC(c3cccc(Cl)c3)CC2)CC1` [Example 34, 1-[(E)-3-(3-Chloro-phenyl)-acryloyl]-4-{2-[4-(3-chloro-phenyl)-piperidin-1-yl]-ethyl}-[1,4]diazepan-5-one], the IC50 came to 1390 nM.

Consider `O=C(/C=C/c1ccc(Cl)c(Cl)c1)N1CCC(=O)N(CCCCN2CCC(O)CC2)CC1` [Example 424], for which the IC50 is 119 nM.

Regarding `O=C(/C=C/c1ccc(Cl)c(Cl)c1)N1CCC(=O)N(C[C@@H](O)CN2CC[C@H](CO)[C@H](O)C2)CC1` (mixture of isomers) [Example 328, 1-[(E)-3-(3,4-Dichloro-phenyl)-acryloyl]-4-[(S)-2-hydroxy-3-(cis-3-hydroxy-4-hydroxymethyl-piperidin-1-yl)-propyl]-[1,4]diazepan-5-one], the IC50 was determined as 28 nM.

In the case of `CC(C)CN1CCN(CCCN2CCN(C(=O)/C=C/c3ccc(Cl)c(Cl)c3)CCC2=O)CC1` [Example 258], the half-inhibitory concentration (IC50) was 375 nM.

With `O=C(/C=C/c1ccc(F)c(Cl)c1)N1CCC(=O)N(C[C@@H](O)CN2CC[C@@H](CO)[C@H](O)C2)CC1` (mixture of isomers) [Example 339, 1-[(E)-3-(3-Chloro-4-fluoro-phenyl)-acryloyl]-4-[(S)-2-hydroxy-3-(trans-3-hydroxy-4-hydroxymethyl-piperidin-1-yl)-propyl]-[1,4]diazepan-5-one], the IC50 was 1360 nM.

On to `O=C(/C=C/c1ccc(Cl)c(Cl)c1)N1CCC(=O)N(C[C@@H](O)CN2CCC3(CC3)C(O)C2)CC1` (stereo partly drawn) [Example 327, 1-[(E)-3-(3,4-Dichloro-phenyl)-acryloyl]-4-[(S)-2-hydroxy-3-((−)-4-hydroxy-6-aza-spiro[2.5]oct-6-yl)-propyl]-[1,4]diazepan-5-one], for which the IC50 stood at 2 nM.

As to `O=C(/C=C/c1ccc(Cl)cc1)N1CCC(=O)N(CCCN2CCC3(CC3)C(O)C2)CC1` (stereo not shown) [Example 498], the IC50 came to 11 nM.

For `CC1CC(O)CN(CCCN2CCN(C(=O)C=Cc3ccc(Cl)c(Cl)c3)CCC2=O)C1` (mixture of isomers) [Example 279, (rac,cis)-1-[(E)-3-(3,4-Dichloro-phenyl)-acryloyl]-4-[3-(3-hydroxy-5-methyl-piperidin-1-yl)-propyl]-[1,4]diazepan-5-one], the half-inhibitory concentration (IC50) was found to be 5 nM.

With `CC1(C)CCN(CCCN2CCN(C(=O)/C=C/c3ccc(Cl)c(Cl)c3)CCC2=O)CC1O` (racemic) [Example 274], the IC50 was 4 nM.

As to “4-[3-(Cyclohexy-methyl-amino)-ethyl]-1-[(E)-3-(3,4-dichloro-phenyl)-acryloyl]-[1,4]diazepan-5-one [Example 111]”, the IC50 came to 335 nM.

On to `C[C@H]1[C@H](O)CCCN1CC(O)CN1CCN(C(=O)/C=C/c2ccc(Cl)c(Cl)c2)CCC1=O` (mixture of isomers) [Example 282], for which the IC50 was found to be 212 nM.

For `O=C(/C=C/c1ccc(F)c(Cl)c1)N1CCC(=O)N(CCCCN2CC[C@H](F)[C@@H](O)C2)CC1` (relative stereo) [Example 389], the concentration for half-maximal inhibition (IC50) was 323 nM.

In the case of `COCC1(C)CCCN(CCCN2CCN(C(=O)/C=C/c3ccc(Cl)c(Cl)c3)CCC2=O)C1` (racemic) [Example 249], the IC50 was 1250 nM.

For `C[C@@H]1CN(CCCN2CCN(C(=O)/C=C/c3ccc(Cl)c(Cl)c3)CCC2=O)CC[C@@H]1O` (racemic) [Example 253], the IC50 was determined as 132 nM.

On to `CC(C)CN1CCN(CC(O)CN2CCN(C(=O)C=Cc3ccc(Cl)c(Cl)c3)CCC2=O)CC1` (racemic) [Example 325], for which the concentration for half-maximal inhibition (IC50) amounted to 741 nM.

With `CC1CCN(CCCN2CCN(C(=O)C=Cc3ccc(Cl)c(Cl)c3)CCC2=O)CC1O` (single isomer, unassigned) [Example 259, 1-[(E)-3-(3,4-Dichloro-phenyl)-acryloyl]-4-[3-((+, cis)-3-hydroxy-4-methyl-piperidin-1-yl)-propyl]-[1,4]diazepan-5-one], the half-maximal inhibitory concentration (IC50) is 57 nM.

The record behind these values is patent publication US7632829B2, “Diazepan derivatives” (Hoffmann-La Roche Inc., priority 2006, dated 2009).
